Values of other authors, collected in patent US6071521A, “Pharmaceutical composition having an antitumor activity and a process for preparation thereof” (priority 1989, dated 2000).

Conditions: water, alcohol, chloroform, and chlorinated ethylene

C=C1C=CC(=O)O1 [protoanemonin, Protoanemonin]
solubility: dissolved in water, alcohol, chloroform, and chlorinated ethylene
